# What was measured:
# [1] = cited from earlier work
# substance P = conditions: comparison with capsaicin; prevents pain sensation without compromising touch or motor coordination; cited from earlier work
# [2] = Use of capsaicin to induce salivation: application to oral mucosa of a human subject, saliva collected for 15 minutes; type: in vivo
# Experimental: A subject was used as a test subject to determine whether application of capsaicin to oral mucosa causes salivation. Approximately 0.25 inches of capsaicin (0.025% generic capsaicin cream) was applied to the oral mucosa. […] Saliva was collected for a period of about 15 minutes in a paper cup. The amount was compared to the amount of saliva collected for a period of 15 minutes before applying capsaicin to the oral mucosa. […] The increased salivation continued for approximately an hour. In preferred embodiments of the present invention, capsaicin or capsaicinoid is combined with one or more of the following: antihistamines such as Benadryl®, or other antihistamines, antibacterials, antifungals, antivirals, and/or antipruritis medications, such as those described above.
smiles,measurement,setting,value
CC[C@@H]1C(=O)OC[C@@H]1Cc1cncn1C [pilocarpine],stimulation of salivary glands,[1]; patients experiencing xerostomia due to radiotherapy,effective in stimulating salivary glands
same,side effects of treatment,[1]; pilocarpine treatment,"often associated with side effects involving heart, blood pressure, digestion and profuse sweating"
"COc1cc(CNC(=O)CCCC/C=C\C(C)C)ccc1O [Civamide, cis-capsaicin]",depletion of substance P compared with capsaicin,substance P,more effective than capsaicin in depleting substance P
COc1cc(CNC(=O)CCCC/C=C/C(C)C)ccc1O [capsaicin],duration of increased salivation,"[2]; one subject, 0.025% capsaicin cream on oral mucosa",approximately an hour
same,increase in salivation relative to baseline level of salivation,"[2]; one subject, about 0.25 inches of 0.025% capsaicin cream on oral mucosa, saliva collected about 15 minutes vs 15 minutes before application, estimated",about two to three times the baseline level
same,sensation reported by the subject after application,"[2]; within a few minutes of application, increased in intensity for about twenty minutes",warm feeling in the mouth

# From patent US20030082249A1, “Compositions containing capsaicin and its derivatives, and their use in treating mucositis” (Ovation Pharmaceuticals, priority 2001, published 2003)
